The values that follow come from ChEMBL document CHEMBL1201862, “PubChem BioAssay data set” (2004).

In general, EC50 refers to the concentration at which the effect is half-maximal. The IC50 is the point on the concentration scale where inhibition reaches its midpoint.

The target in test [1] is T1, G-protein coupled receptor 35 (Homo sapiens, UniProt Q9HC97). The test is described as follows: SAR analysis of Agonists of the GPR35 Receptor using an Image-Based Assay - Set 4. [Related pubchem assays (depositor defined):AID2013, AID2026]. The class given is functional.
T1 sequence (Q9HC97 whole entry): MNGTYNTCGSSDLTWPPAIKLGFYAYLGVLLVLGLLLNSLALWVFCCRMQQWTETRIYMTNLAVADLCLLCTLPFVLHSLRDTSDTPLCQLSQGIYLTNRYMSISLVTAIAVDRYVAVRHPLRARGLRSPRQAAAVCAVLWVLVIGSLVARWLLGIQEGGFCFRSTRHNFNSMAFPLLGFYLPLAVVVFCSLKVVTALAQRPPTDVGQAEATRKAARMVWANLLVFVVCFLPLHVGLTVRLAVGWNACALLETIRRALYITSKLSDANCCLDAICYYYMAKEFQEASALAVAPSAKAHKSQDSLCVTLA
Test [2] addresses T2, Cannabinoid receptor 1 (Homo sapiens, UniProt P21554). The test is described as follows: SAR analysis of agonists of the Cannabinoid Receptor 1 using an Image-Based Assay - Set 4. [Related pubchem assays (depositor defined):AID2013, AID2026]. The class given is functional.
Test [3] addresses T1, G-protein coupled receptor 35. The test is described as follows: SAR analysis of Antagonists of the GPR35 Receptor using an Image-Based Assay - Set 6. [Related pubchem assays (depositor defined):AID2013, AID2026]. The class given is functional.
Test [4] deals with T2, Cannabinoid receptor 1. Kind of test: SAR analysis of antagonists of the Cannabinoid Receptor 1 using an Image-Based Assay - Set 4. [Related pubchem assays (depositor defined):AID2013, AID2026]. It is filed as functional.
Test [5] deals with G-protein coupled receptor 55 (Homo sapiens, UniProt Q9Y2T6). Kind of test: SAR Analysis of Selective Antagonists of GPR55 using an Image-Based Assay - Set 4. [Related pubchem assays (depositor defined):AID2013, AID2026]. The class given is functional.
Chain of G-protein coupled receptor 55 (Q9Y2T6 whole entry): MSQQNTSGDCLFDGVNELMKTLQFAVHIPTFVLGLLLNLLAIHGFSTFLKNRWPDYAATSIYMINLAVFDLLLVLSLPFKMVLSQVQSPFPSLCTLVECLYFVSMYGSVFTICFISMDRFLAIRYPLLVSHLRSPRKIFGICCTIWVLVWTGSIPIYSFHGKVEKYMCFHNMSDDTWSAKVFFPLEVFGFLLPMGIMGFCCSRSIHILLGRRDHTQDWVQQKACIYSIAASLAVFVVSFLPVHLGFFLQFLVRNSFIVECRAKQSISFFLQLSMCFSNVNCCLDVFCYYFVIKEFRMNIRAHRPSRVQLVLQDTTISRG
For test [6], the target named is T3, Cannabinoid receptor 2 (Homo sapiens, UniProt P34972). Kind of test: SAR analysis of antagonists of the Cannabinoid Receptor 2 using an Image-Based Assay - Set 3. [Related pubchem assays (depositor defined):AID2013, AID2026]. It is filed as functional.
T3 sequence (P34972 whole entry): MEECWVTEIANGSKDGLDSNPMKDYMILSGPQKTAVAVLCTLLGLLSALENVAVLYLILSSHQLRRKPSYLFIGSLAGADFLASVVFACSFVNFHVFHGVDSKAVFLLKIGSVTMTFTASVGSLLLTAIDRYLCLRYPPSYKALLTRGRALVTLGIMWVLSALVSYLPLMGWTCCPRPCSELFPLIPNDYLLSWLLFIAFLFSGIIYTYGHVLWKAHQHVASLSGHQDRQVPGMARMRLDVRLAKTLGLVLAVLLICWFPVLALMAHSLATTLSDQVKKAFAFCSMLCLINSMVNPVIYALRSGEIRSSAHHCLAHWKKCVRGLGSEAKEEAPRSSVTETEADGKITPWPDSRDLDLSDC
In test [7] the target is T3, Cannabinoid receptor 2. The test is described as follows: SAR analysis of agonists of the Cannabinoid Receptor 2 using an Image-Based Assay - Set 3. [Related pubchem assays (depositor defined):AID2013, AID2026]. It is filed as functional.
For test [8], the system named is HEK293. The test is described as follows: NOD1 signaling inhibitors, primary screen, cell-based, luminescence, uHTS (AID 1578). The class given is functional. Conditions: Homo sapiens.
The subject of test [9] is HEK293. The test is described as follows: cells. The settings on record: Homo sapiens. It is filed as functional, cell-based.
Test [10] deals with HEK293. Kind of test: cells. The class given is functional, cell-based. The settings on record: Homo sapiens. This is another data set of the same source.
Test [11] has as its target Nucleotide-binding oligomerization domain-containing protein 2 (Homo sapiens, UniProt Q9HC29). Kind of test: NOD2 signaling inhibitors, cell-based, luminescence, uHTS, HEK293 (AID 1566). It is filed as functional.
Test [12] relates to HEK293. The test is described as follows: NOD2 signaling inhibitors in MDP-stimulated cells, cell-based, uHTS, luminescence (AID 2001). It is filed as functional. Conditions: Homo sapiens.
The subject of test [13] is HEK293. The test is described as follows: cells. It is filed as functional, cell-based. Conditions: Homo sapiens. The source holds these as a separate data set.
The target in test [14] is Beta-galactosidase (Escherichia coli, UniProt Q8VNN2). The test is described as follows: beta-galactosidase enzyme inhibitors and activators, dose response, artefact control for CCR6 antagonist project, biochemical, E. coli enzyme, set 3 (AID 504712). It is filed as functional.
Chain of Beta-galactosidase (Q8VNN2 whole entry): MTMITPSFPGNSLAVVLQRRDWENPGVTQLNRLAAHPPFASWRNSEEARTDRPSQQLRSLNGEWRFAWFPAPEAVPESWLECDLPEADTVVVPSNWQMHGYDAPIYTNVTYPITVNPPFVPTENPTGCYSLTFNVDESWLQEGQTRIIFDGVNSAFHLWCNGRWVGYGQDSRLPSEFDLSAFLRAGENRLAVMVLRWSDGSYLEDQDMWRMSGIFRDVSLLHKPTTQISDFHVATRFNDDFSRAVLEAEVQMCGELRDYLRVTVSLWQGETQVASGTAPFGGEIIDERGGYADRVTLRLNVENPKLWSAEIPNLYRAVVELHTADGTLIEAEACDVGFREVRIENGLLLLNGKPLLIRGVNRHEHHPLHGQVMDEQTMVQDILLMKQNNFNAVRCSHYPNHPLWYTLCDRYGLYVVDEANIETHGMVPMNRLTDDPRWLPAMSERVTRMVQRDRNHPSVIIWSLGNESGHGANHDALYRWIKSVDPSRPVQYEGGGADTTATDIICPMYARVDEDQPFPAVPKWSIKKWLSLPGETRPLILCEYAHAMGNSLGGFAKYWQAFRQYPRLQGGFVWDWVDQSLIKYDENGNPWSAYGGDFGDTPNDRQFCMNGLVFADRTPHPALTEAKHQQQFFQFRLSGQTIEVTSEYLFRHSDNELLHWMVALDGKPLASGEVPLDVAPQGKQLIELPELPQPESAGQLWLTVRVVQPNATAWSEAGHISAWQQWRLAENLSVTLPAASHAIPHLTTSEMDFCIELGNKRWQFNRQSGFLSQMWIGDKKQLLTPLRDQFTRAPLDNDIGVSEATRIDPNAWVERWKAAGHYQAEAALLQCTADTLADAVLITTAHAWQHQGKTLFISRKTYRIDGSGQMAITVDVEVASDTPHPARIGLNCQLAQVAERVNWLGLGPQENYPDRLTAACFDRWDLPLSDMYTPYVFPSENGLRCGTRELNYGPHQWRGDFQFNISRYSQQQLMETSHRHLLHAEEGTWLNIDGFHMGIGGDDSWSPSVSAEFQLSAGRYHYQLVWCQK
For test [15], the target named is Protein Rev (Human immunodeficiency virus type 1 group M subtype B (isolate HXB2)(HIV-1), UniProt P04618). Kind of test: inhibitors of Rev binding to RRE RNA, dose response, biochemical, fluorescence polarization, HIV-1 (AID 434976). More on the design: species or system Human immunodeficiency virus 1. Background: Fluorescence polarisation rises when a labelled molecule tumbles more slowly, as on binding a larger partner.
Chain of Protein Rev (P04618 whole entry): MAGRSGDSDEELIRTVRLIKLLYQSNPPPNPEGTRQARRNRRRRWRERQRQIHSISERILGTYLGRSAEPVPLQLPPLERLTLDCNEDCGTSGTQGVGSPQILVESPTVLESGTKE

Test [16] deals with Female germline-specific tumor suppressor gld-1 (Caenorhabditis elegans, UniProt Q17339). Kind of test: inhibitors of GLD-1 binding to TGE RNA, dose response, biochemical, fluorescence polarization, C. elegans (AID 2802).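 Further: fluorescence polarization of labeled TGE RNA bound by purified gld-1 protein.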
Chain of Female germline-specific tumor suppressor gld-1 (Q17339 whole entry): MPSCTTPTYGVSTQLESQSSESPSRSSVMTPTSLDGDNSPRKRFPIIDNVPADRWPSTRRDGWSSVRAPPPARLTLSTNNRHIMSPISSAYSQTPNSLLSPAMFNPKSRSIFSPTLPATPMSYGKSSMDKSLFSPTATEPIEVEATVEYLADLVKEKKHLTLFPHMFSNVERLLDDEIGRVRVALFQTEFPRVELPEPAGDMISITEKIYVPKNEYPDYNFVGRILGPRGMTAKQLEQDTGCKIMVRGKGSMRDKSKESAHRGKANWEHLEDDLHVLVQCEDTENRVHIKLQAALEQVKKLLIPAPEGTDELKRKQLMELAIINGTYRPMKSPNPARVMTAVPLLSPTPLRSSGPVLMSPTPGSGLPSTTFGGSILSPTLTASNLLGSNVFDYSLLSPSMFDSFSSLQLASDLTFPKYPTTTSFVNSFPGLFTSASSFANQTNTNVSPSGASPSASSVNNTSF
Test [17] concerns the target E3 ubiquitin-protein ligase XIAP (Homo sapiens, UniProt P98170). The test is described as follows: Counter Screen using XIAP-Bir3 for Chemical Antagonists of Bir1/2 domains of IAP-family anti-apoptotic proteins. [Related pubchem assays (depositor defined):AID1018, AID1449, AID1514, AID1638, AID1749, AID1750, AID488957, AID488963]. For orientation: Counterscreens check selectivity or assay interference.

Test [18] has as its target T4, Coagulation factor XII (Homo sapiens, UniProt P00748).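 Further: activated factor XIIa alpha cleaving a fluorogenic AMC peptide substrate; inhibitor potency from loss of enzyme activity.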
T4 sequence (P00748 whole entry): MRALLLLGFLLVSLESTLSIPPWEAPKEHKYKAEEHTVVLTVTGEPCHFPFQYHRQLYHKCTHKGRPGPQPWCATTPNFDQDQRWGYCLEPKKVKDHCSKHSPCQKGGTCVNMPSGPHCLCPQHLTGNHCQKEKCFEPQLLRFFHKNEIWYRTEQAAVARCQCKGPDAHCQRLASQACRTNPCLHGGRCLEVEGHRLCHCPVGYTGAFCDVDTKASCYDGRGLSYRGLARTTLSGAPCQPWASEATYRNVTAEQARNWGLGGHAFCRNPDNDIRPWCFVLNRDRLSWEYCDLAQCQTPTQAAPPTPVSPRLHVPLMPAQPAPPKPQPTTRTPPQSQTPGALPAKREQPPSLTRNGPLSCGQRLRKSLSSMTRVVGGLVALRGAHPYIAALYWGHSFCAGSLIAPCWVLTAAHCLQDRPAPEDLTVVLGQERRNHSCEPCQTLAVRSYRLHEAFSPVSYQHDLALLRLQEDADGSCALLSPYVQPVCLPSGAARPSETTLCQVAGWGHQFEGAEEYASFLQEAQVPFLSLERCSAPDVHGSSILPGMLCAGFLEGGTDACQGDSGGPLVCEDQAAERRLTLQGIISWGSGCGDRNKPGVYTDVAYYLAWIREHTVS
The class given is functional.

Activity calls are given as the source filed them.

T2 sequence (P21554 whole entry): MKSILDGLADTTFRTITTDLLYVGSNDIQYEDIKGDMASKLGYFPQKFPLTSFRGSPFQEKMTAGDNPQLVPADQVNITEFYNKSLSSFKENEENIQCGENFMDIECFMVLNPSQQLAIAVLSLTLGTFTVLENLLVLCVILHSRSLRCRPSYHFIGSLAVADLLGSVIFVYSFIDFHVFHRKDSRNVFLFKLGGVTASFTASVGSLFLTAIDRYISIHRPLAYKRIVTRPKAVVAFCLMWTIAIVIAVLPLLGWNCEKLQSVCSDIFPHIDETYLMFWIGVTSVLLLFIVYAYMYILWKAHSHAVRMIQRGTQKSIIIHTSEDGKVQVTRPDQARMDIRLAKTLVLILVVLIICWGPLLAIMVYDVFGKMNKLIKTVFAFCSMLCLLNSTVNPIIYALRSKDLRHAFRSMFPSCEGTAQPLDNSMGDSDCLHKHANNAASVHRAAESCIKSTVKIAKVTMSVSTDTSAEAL
Chain of Nucleotide-binding oligomerization domain-containing protein 2 (Q9HC29 whole entry, the tested form may be a part): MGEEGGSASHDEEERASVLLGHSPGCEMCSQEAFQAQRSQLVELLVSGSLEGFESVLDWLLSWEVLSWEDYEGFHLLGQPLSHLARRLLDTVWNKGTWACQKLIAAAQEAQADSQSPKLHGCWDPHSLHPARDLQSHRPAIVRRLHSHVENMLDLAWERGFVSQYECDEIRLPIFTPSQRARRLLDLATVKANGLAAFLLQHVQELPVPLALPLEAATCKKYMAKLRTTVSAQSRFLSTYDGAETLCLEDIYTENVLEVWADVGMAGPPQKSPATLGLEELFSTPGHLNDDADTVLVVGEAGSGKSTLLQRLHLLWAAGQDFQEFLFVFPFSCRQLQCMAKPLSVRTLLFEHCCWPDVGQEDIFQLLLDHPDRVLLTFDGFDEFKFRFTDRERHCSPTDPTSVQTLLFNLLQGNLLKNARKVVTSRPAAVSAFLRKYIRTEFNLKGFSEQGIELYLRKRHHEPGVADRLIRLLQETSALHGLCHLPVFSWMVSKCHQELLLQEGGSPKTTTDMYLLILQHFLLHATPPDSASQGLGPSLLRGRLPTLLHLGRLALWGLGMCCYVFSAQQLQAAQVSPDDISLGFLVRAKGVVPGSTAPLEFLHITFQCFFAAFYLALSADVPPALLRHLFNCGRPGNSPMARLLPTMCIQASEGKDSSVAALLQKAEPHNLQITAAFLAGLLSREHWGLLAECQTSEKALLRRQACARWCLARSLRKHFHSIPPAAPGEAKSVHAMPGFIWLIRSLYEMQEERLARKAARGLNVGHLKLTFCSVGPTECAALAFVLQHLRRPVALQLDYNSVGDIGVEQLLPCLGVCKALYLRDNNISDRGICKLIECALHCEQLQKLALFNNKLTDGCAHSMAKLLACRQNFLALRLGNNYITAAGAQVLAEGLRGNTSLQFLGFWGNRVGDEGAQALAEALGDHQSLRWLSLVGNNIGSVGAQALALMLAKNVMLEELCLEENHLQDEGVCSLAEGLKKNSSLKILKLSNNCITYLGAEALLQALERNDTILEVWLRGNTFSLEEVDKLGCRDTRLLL
Chain of E3 ubiquitin-protein ligase XIAP (P98170 whole entry): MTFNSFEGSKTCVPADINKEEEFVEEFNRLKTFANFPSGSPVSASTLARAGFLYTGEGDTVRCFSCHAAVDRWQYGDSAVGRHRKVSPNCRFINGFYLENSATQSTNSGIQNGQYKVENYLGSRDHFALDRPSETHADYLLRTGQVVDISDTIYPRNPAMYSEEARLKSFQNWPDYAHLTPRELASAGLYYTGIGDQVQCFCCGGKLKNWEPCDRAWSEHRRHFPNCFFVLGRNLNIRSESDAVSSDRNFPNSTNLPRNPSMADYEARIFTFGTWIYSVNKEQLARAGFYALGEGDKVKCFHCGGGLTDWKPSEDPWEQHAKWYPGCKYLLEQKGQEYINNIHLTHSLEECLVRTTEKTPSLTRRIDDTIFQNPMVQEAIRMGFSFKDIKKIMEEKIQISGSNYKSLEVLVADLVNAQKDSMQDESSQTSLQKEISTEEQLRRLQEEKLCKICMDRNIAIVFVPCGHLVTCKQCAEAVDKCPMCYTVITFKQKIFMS

As to `Cc1ccc2nc3c(cc(C(=O)NC4CCCC4)c(=N)n3C3CCCC3)c(=O)n2c1`, the EC50 in [1], in [2] and in [7] was > 32 µM (inactive) in each case. Besides, the IC50 is > 32 µM (inactive) in [3], 24.9 µM (inactive) in test [4], 8.18 µM (active) in [5] and > 32 µM (inactive) in test [6].

With `O=C(NC(=S)N1CCN(Cc2ccc3c(c2)OCO3)CC1)c1cccc(Br)c1`, the figures for the EC50 in [8] and in test [11] were 7.03 µM (active) and > 20 µM (inactive), respectively. The IC50 was 16.1 µM (active) in test [9]; > 20 µM (inactive) in test [10]; 6.54 µM (inactive) in test [12]; > 20 µM (inactive) in [13]; > 66.6 µM (inactive) in test [14].

On to `COc1cc2c(cc1OC)C(c1ccc(-c3cc(Cl)ccc3Cl)o1)=NCC2`, for which the EC50 in test [8] and in test [11] was > 20 µM (inactive) throughout. Moreover, the IC50 was 5.36 µM (active) in [9], > 20 µM (inactive) in test [10], 2.75 µM (active) in test [12] and > 20 µM (inactive) in test [13].

For `COCCOC(=O)c1sc(=S)n(CCOC)c1N`, the figures for the IC50 in [15], in test [16] and in test [17] were 11.1 µM (not active), 5.31 µM (active) and 0.699 µM (active), respectively.

`CC12CCC(C(=O)NC(c3ccccc3)c3ccccc3)(OC1=O)C2(C)C` (centres undefined): the IC50 in test [18] was > 50 µM (inactive).
